The text below walks through data of patent US11267826B2, “Penicillin-binding protein inhibitors” (priority 2017, dated 2022).

Where only a bound is given, the exact number is not on record here.

A word on the MIC: it is the lowest concentration found to suppress growth.

The target in one assay is T1, E. coli PBP2 (Escherichia coli, UniProt P0AD65).
T1 construct: 100 μg's of total membrane protein extracts containing PBPs; endogenous in cells; host or cells: Escherichia coli K12, membrane protein fraction
The assay can be described thus: Bocillin FL competition binding assay, PBP2. The arrangement: species or system Escherichia coli K12. Conditions: 15 min pre-incubation. The procedure, abridged: (§1)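 E. coli K12 membrane extracts (100 µg protein) pre-incubated 15 min with compound (0.005–2,480 µg/mL) in pH 7 phosphate/350 mM NaCl, then labelled with Bocillin FL 30 min at 35°C; SDS-PAGE fluorescence (ex 450/em 520 nm), μg/mL reported. PBP1a/1b unresolved, reported combined.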

For another assay, the target named is T2, E. coli K12 PBP1b (Escherichia coli, UniProt P02919).
T2 construct: endogenous in cells; host or cells: Escherichia coli K12, membrane protein fraction
In words: Competition binding assay using Bodipy-FL boronic acid probe (Example 125). The conditions noted are these: Bodipy-FL boronic acid probe (Example 125) 30 μM, 10 minutes pre-incubation, 10 minutes reaction. How it is done:
Penicillin binding proteins were isolated from Escherichia coli K12 by growth of Escherichia coli K12 from a single colony in 4 L of Luria-Bertani (LB) broth at 35° C. and 250 rpm to an OD600 nm of 0.5. The cells were harvested by centrifugation at 7,000×g for 10 min. at 4° C. Cells were resuspended and washed in 50 mM potassium phosphate pH 7.5. The cells were re-suspended in sonication buffer [50 mM Tris-HCl pH 7.5, 1 mM MgCl2, 1 mM beta-mercaptoethanol, and 5 μg/mL DNAse I] and sonicated by 4 passes of 30 seconds at 45 W on ice. The sample was clarified by centrifugation at 3,000×g to remove cell debris and unbroken cells and supernatant containing the membrane proteins was retained. The membrane proteins including the PBPs were further purified from soluble constituents by an ultracentrifugation step at 100,000×g for 30 min. at 4° C. The membrane proteins are washed twice with 10 mM sodium phosphate pH 7, resuspended in a volume of 5 mL, quantitated by BCA assay, adjusted to […] and frozen at −80° C. until use.
The adapted Bocillin FL competition binding method described herein incorporates a 15 min. pre-incubation of test compound with isolated PBPs to attempt to balance the difference in mechanism of inhibition between beta-lactams (largely irreversible covalent bond to active site Serine) and the boron-containing PBP inhibitor test compounds (reversible covalent bond to active site Serine). Briefly, 50 μL reactions consisted of 100 μg's of total membrane protein extracts containing PBPs incubated with a dilution series of test compound ranging from 0.005 μg/mL to 2,480 μg/mL in 10 mM sodium phosphate pH7 containing 350 mM NaCl. Thirty minute reactions at 35° C. were initiated by addition of […] Bocillin FL, quenched by addition of SDS-PAGE loading buffer containing sodium dodecyl sulfate (SDS) and heated for 15 minutes at 95° C. to denature proteins in preparation for SDS-polyacrylamide gel electrophoresis. The Bocillin FL labeled PBPs are then separated by SDS-PAGE in Novex NuPage 10% Bis-Tris pre-cast gels (Invitrogen). The SDS-PAGE gel, post-electrophoresis, is then washed in water to remove excess SDS for 10 minutes at room temperature and placed on the scanning bed of a GE Healthcare/Amersham Biosciences Storm 860 fluorescence scanner. The excitation wavelength is in the blue spectrum at 450 nm and the emission at 520 nm is captured by the instrument. Effective PBP inhibitors are detected by a reduction in Bocillin FL labeling of the particular PBP over the dose range of test compound in a dose-responsive manner. High molecular weight PBP 1a/1b are not resolved by these gels, thus we report HMW PBP binding results in μg/mL for PBPs 1a/1b combined as well as for PBP2 and PBP3.
To determine the ability of boronic acid-based test PBP inhibitors to bind Penicillin Binding Proteins (PBPs), a competition binding assay using a Bodipy-FL-labeled boronic acid PBP inhibitor (Example 125) was adapted from the classical method used to assess PBP potency of beta-lactams using Bocillin-FL (fluorescently-labeled penicillin V). The method is identical to that described in Example I for the Bocillin-FL competition binding assay with the following exceptions, the Bodipy-FL boronic acid probe (Example 125) is used at a final concentration of 30 μM, pre-incubation time of test compound with PBP enzymes is 10 minutes and reaction time is set for 10 minutes and reactions are prepared for SDS-PAGE analysis by simply adding SDS-containing loading buffer. Representative results are shown in Table 5, where A represents a potency of >1000 μg/mL, B represents a potency between 64 and 1000 μg/mL inclusive, and C represents a potency of <64 μg/mL. NT=Not Tested.

For the next assay, the system named is S. aureus ATCC 29213. The assay can be described thus: Broth microdilution MIC assay, S. aureus. It counts as cell-based. Conditions: Staphylococcus aureus, ATCC29213; broth microdilution, 16-20 hours at 37° C.; read-out: S. aureus 29213 MIC. The method, boiled down: (§2)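 Colonies from Mueller Hinton II agar grown 3-5 h at 37° C in cation-adjusted MH broth; OD600-adjusted inoculum, 5×10^5 CFU/mL final, added to 2-fold compound series. 16-20 h, 37° C. Visual MIC, no-growth endpoint.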
On the technique in general: In broth dilution the organism is exposed to a series of concentrations in liquid medium.

Assay [1] deals with hyper-permeable E. coli 901C. In words: Broth microdilution MIC assay, hyper-permeable E. coli. It counts as cell-based. The conditions noted are these: Escherichia coli, read-out: E. coli 901C MIC. The procedure, abridged:
as §2

Another assay has as its system E. coli K12 PBP1a/b. The assay can be described thus: Bocillin FL competition binding assay, PBP1a/1b combined. Conditions: 15 min pre-incubation, PBP 1a/1b combined. The arrangement: species or system Escherichia coli K12. The procedure, abridged: as §1
Another assay deals with T3, E. coli PBP3 (Escherichia coli, UniProt P0AD68).
T3 construct: 100 μg's of total membrane protein extracts containing PBPs; endogenous in cells; host or cells: Escherichia coli K12, membrane protein fraction
The assay can be described thus: Bocillin FL competition binding assay, PBP3. The arrangement: species or system Escherichia coli K12. The conditions noted are these: 15 min pre-incubation. The method, boiled down: as §1

T1 sequence (P0AD65 whole entry): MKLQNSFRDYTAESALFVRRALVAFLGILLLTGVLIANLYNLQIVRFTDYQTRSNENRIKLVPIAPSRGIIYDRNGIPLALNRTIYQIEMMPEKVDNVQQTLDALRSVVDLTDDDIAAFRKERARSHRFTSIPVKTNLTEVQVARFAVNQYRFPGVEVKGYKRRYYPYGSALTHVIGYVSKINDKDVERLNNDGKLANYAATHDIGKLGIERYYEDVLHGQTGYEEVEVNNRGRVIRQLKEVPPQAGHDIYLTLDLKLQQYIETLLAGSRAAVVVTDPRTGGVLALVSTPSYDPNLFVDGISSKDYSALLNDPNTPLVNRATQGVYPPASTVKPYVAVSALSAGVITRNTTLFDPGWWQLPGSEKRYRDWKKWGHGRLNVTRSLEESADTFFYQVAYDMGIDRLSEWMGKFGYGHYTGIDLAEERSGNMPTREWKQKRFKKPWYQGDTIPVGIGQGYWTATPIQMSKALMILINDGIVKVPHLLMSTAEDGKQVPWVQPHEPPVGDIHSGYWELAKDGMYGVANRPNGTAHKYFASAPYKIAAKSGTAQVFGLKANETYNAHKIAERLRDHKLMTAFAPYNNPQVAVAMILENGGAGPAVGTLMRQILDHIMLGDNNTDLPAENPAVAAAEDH
T2 sequence (P02919 whole entry): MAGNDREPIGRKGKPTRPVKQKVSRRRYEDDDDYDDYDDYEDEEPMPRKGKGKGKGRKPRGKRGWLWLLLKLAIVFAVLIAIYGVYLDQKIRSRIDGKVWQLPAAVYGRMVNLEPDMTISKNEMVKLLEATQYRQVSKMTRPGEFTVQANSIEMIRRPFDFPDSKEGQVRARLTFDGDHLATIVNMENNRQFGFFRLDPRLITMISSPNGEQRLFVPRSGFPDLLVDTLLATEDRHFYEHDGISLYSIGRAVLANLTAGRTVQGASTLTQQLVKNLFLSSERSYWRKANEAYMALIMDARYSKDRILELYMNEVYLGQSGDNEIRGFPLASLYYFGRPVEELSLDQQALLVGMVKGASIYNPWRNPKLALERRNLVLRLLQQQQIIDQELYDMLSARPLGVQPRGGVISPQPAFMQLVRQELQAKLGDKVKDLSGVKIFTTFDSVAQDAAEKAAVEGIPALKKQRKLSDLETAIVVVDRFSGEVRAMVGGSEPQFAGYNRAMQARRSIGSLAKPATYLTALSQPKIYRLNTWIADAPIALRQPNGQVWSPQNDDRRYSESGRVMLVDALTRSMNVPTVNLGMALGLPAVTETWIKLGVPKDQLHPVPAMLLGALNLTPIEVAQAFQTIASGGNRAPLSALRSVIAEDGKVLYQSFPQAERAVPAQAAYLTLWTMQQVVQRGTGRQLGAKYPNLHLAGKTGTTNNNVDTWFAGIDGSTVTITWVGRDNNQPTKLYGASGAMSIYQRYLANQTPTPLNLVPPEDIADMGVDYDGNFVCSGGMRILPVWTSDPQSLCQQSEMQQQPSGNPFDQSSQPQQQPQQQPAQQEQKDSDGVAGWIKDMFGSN
T3 sequence (P0AD68 1-577): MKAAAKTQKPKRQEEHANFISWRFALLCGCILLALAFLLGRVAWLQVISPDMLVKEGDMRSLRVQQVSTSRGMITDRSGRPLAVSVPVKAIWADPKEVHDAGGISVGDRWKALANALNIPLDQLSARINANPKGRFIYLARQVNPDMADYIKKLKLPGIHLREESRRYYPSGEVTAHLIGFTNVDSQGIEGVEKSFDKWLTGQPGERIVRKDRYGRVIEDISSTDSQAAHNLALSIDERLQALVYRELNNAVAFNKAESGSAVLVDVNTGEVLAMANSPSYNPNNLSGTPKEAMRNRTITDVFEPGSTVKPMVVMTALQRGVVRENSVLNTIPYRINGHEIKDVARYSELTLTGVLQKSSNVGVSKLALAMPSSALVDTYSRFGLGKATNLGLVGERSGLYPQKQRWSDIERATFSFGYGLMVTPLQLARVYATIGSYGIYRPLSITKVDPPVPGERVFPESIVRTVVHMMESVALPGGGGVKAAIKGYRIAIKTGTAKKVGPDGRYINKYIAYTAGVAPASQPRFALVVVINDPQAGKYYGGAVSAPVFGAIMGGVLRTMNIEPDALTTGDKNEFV

Take `CC(C)NC(=N)c1ccc(OCCO/N=C(\C(=O)N[C@H]2Cc3cccc(C(=O)O)c3OB2O)c2csc(N)n2)cc1` [Example 49, (R,Z)-3-(2-(2-aminothiazol-4-yl)-2-((2-(4-(N-isopropylcarbamimidoyl)phenoxy)ethoxy)imino)acetamido)-2-hydroxy-3,4-dihydro-2H-benzo[e][1,2]oxaborinine-8-carboxylic Acid]: the “E. coli PBP2 Potency” value at E. coli PBP2 is “B (B represents a potency between 64 and 1000 μg/mL inclusive)”. For the same compound, the “E. coli K12 PBP1b Potency” value at E. coli K12 PBP1b is “A (A represents a potency of >1000 μg/mL)”. The values for the MIC (in the assay with S. aureus ATCC 29213; in assay [1]) were 64 to 128 µg/mL and < 64 µg/mL, respectively. In addition, the “E. coli K12 PBP1a/b Potency” value with E. coli K12 PBP1a/b was “B (B represents a potency between 64 and 1000 μg/mL inclusive)”. Besides, at E. coli PBP3, the “E. coli PBP3 Potency” value is “B (B represents a potency between 64 and 1000 μg/mL inclusive)”.
On to `Nc1nc(/C(=N/OCC2CCNCC2)C(=O)N[C@H]2Cc3cccc(C(=O)O)c3OB2O)cs1` [Example 52, (R,Z)-3-(2-(2-aminothiazol-4-yl)-2-((piperidin-4-ylmethoxy)imino)acetamido)-2-hydroxy-3,4-dihydro-2H-benzo[e][1,2]oxaborinine-8-carboxylic Acid], for which the “E. coli PBP2 Potency” value on E. coli PBP2 is “A (A represents a potency of >1000 μg/mL)”. Further, the “E. coli K12 PBP1b Potency” value at E. coli K12 PBP1b was “B (B represents a potency between 64 and 1000 μg/mL inclusive)”. Besides, the results for the MIC (with S. aureus ATCC 29213; in assay [1]) were > 128 µg/mL and < 64 µg/mL, respectively. Moreover, the “E. coli K12 PBP1a/b Potency” value with E. coli K12 PBP1a/b is given as “A (A represents a potency of >1000 μg/mL)”. Also, at E. coli PBP3, the “E. coli PBP3 Potency” value is “A (A represents a potency of >1000 μg/mL)”.
In the case of `Nc1nc(/C(=N/OCC(=O)NC2CCNCC2)C(=O)N[C@H]2Cc3cccc(C(=O)O)c3OB2O)cs1` [Example 59, (R,Z)-3-(2-(2-aminothiazol-4-yl)-2-((2-oxo-2-(piperidin-4-ylamino)ethoxy)imino)acetamido)-2-hydroxy-3,4-dihydro-2H-benzo[e][1,2]oxaborinine-8-carboxylic Acid], on E. coli PBP2, the “E. coli PBP2 Potency” value was “C (C represents a potency of <64 μg/mL)”. Moreover, at E. coli K12 PBP1b, the “E. coli K12 PBP1b Potency” value was “B (B represents a potency between 64 and 1000 μg/mL inclusive)”. Also, the minimal inhibitory concentration (MIC) is > 128 µg/mL with S. aureus ATCC 29213 and < 64 µg/mL in assay [1]. In addition, the “E. coli K12 PBP1a/b Potency” value in the assay with E. coli K12 PBP1a/b is “B (B represents a potency between 64 and 1000 μg/mL inclusive)”. Moreover, at E. coli PBP3, the “E. coli PBP3 Potency” value is reported as “C (C represents a potency of <64 μg/mL)”.
Take `NC(=O)CO/N=C(\C(=O)N[C@H]1Cc2cccc(C(=O)O)c2OB1O)c1csc(N)n1` [Example 61, (R,Z)-3-(2-((2-amino-2-oxoethoxy)imino)-2-(2-aminothiazol-4-yl)acetamido)-2-hydroxy-3,4-dihydro-2H-benzo[e][1,2]oxaborinine-8-carboxylic Acid]: the “E. coli PBP2 Potency” value on E. coli PBP2 was “B (B represents a potency between 64 and 1000 μg/mL inclusive)”. At E. coli K12 PBP1b, the “E. coli K12 PBP1b Potency” value was “C (C represents a potency of <64 μg/mL)”. For the same compound, the figures for the minimal inhibitory concentration (MIC) (in the assay on S. aureus ATCC 29213; in assay [1]) were 64 to 128 µg/mL and < 64 µg/mL, respectively. Besides, the “E. coli K12 PBP1a/b Potency” value with E. coli K12 PBP1a/b is recorded as “C (C represents a potency of <64 μg/mL)”. Further, the “E. coli PBP3 Potency” value at E. coli PBP3 was “C (C represents a potency of <64 μg/mL)”.
`CC(C)(O/N=C(\C(=O)N[C@H]1Cc2cccc(C(=O)O)c2OB1O)c1csc(N)n1)C(=O)O` [Example 68, (R,Z)-3-(2-(2-aminothiazol-4-yl)-2-(((2-carboxypropan-2-yl)oxy)imino)acetamido)-2-hydroxy-3,4-dihydro-2H-benzo[e][1,2]oxaborinine-8-carboxylic Acid]: the “E. coli PBP2 Potency” value at E. coli PBP2 is “C (C represents a potency of <64 μg/mL)”. The “E. coli K12 PBP1b Potency” value on E. coli K12 PBP1b was “C (C represents a potency of <64 μg/mL)”. Further, the MIC with S. aureus ATCC 29213 was > 128 µg/mL; in assay [1], < 64 µg/mL. Moreover, the “E. coli K12 PBP1a/b Potency” value in the assay on E. coli K12 PBP1a/b is listed as “C (C represents a potency of <64 μg/mL)”. The “E. coli PBP3 Potency” value at E. coli PBP3 is given as “C (C represents a potency of <64 μg/mL)”.
